# Earlier results in patent US6770269B1, “Cosmetic and dermatological light-protective formulations containing triazine derivatives and one or several esters of unbranched-chain carboxylic acids and branched-chain alcohols” (Beiersdorf AG, priority 1998, dated 2004).
smiles,measurement,setting,value
"CCCCC(CC)COC(=O)c1ccc(Nc2nc(Nc3ccc(C(=O)OCC(CC)CCCC)cc3)nc(Nc3ccc(C(=O)OCC(CC)CCCC)cc3)n2)cc1 (centres unmarked) [UVINUL7 T 150, tris(2-ethylhexyl) 4,4′,4″-(1,3,5-triazine-2,4,6-triyltriimino)trisbenzoate]","corresponding dissolved, and therefore active, UV filter substance",corresponds to the maximum solubility in known solvents,1-1.5 % by weight
same,maximum amount of the filter that known solvents can dissolve,"known solvents (lipids), prior art",about 15 % by weight
